According to paper PMC12118597 (Science Advances, 2025):
Where “and” joins values, the source holds several entries; their conditions need not be identical. Identical values can stand only once. Like-named read-outs stand apart in the source and are kept apart here.

Assays:
[1] = molecular target: T1, SARS-CoV-2 NSP3 macrodomain (Mac1) (Severe acute respiratory syndrome coronavirus 2, UniProt P0DTD1); assay type: binding; conditions: for 1-BDC: PanDDA background density correction factor; for Total number of conformations: ligand conformations modeled in the crystal structure; for 2*(1-BDC) (%): occupancy estimate from PanDDA; for Refined ligand occupancy (%): refined crystallographic occupancy
[2] = molecular target: T1, SARS-CoV-2 NSP3 macrodomain (Mac1); test: biochemical; assay type: binding
[3] = TRUE = ligand-bound crystal structure obtained (PDB code given)
[4] = crystal soak concentration 20 mM, P43 crystals
[5] = site of Mac1 occupied in the X-ray crystal structure (Adenosine or Distal)
[6] = soak concentration 10 mM, DMSO background map
[7] = soak concentration 10 mM, P43 crystals
[8] = HTRF binding curve, SARS-CoV-2 Mac1
[9] = crystal soak 10 mM, P43 crystal form
[10] = crystal soak 10 mM, DMSO background map
[11] = ligand-bound crystal structure obtained (TRUE)
[12] = site occupied in X-ray crystal structure

Row | SMILES | Occupancy difference (refined_occupancy - 2*(1-BDC)) [1] | 1-BDC [1] | Total number of conformations [1] | 2*(1-BDC) (%) [1] [%] | Refined ligand occupancy (%) [1] [%] | PanDDA run, DMSO background map: 1-BDC [1, 6] | PanDDA run, DMSO background map: Hit [1, 6] | PanDDA run, overall: Hit [1, 7] | PanDDA run, overall: Hit [1, 9] | PanDDA run, DMSO background map: 1-BDC [1, 10] | PanDDA run, DMSO background map: Hit [1, 10] | X-ray crystal structure [1, 11] | Binding site [1, 12] | other results
1 | OCC(Cc1ccccc1)Nc1ncnc2[nH]ccc12 (stereo not drawn) [AVI-313] | 14 | 0.18 | 2 | 36 | 50 | 0.18 | TRUE | TRUE |  |  |  |  |  | X-ray crystal structure [1, 3]: TRUE; Hit (PanDDA run, DMSO background map) ([1]; crystal soak concentration 20 mM, DMSO background map): TRUE; 1-BDC (PanDDA run, DMSO background map) ([1]; crystal soak concentration 20 mM, DMSO background map, event 1): 0.25; Hit (PanDDA run, overall) [1, 4]: TRUE; Modeling comment (PanDDA run, overall) [1, 4]: Duplicate, not modeled; Binding site [1, 5]: Adenosine; PanDDA run, DMSO background map: Modeled [1, 6]: TRUE; PanDDA run, overall: Modeled [1, 7]: TRUE; Hill slope [2, 8]: 1.2; Hill slope ([2]; dose-response): 1.2
2 | CC(CNC(=O)c1ccc2c(c1)CCC(=O)N2)C(=O)O (stereo not drawn) [AVI-328] | 0 | 0.11 | 2 | 22 | 22 | 0.11 and 0.1 | TRUE | TRUE |  |  |  |  |  | X-ray crystal structure [1, 3]: TRUE; Binding site [1, 5]: Adenosine; PanDDA run, DMSO background map: Modeled [1, 6]: TRUE; PanDDA run, overall: Modeled [1, 7]: TRUE; PanDDA run, overall: Modeling comment [1, 7]: Duplicate, not modeled; Hill slope [2, 8]: 1.3; inhibition at 200 µM ([2]; compound at 200 μM, mean of three to four technical replicates, read-out: % competition at 200 μM (preliminary HTRF screen)): 50%; Hill slope ([2]; dose-response): 1.3
3 | CC1CC(C(=O)O)CN(C(=O)CSc2ccc(O)cc2)C1 (stereo not drawn) [AVI-334] |  |  |  |  |  | 0.07 | TRUE | TRUE |  |  |  |  |  | PanDDA run, overall: Modeling comment [1, 7]: Weak density, not modeled; Average % competition ([2]; single dose concentration 200 μM (TS-FrankenROCS series)): 25%
4 | CC(C)(C)C1CCC(CO)N(c2ncnc3[nH]ccc23)C1 (stereo not drawn) [AVI-3719] | 0 | 0.08 | 1 | 16 | 16 |  |  |  | TRUE | 0.08 | TRUE | TRUE | Adenosine | Phe132 loop open state [1]: TRUE
5 | CN1CCN(c2ncnc3[nH]ccc23)C(CO)C1 (stereo not drawn) [AVI-3721] | 0 | 0.06 | 2 | 12 | 12 |  |  |  | TRUE | 0.06 | TRUE | TRUE | Adenosine | 
6 | CC(C)(C)[C@@H]1CCN(c2ncnc3[nH]ccc23)[C@H](CO)C1 [AVI-3722] | 0 | 0.11 | 1 | 22 | 22 |  |  |  | TRUE | 0.11 | TRUE | TRUE | Adenosine | 
7 | CC1(C)CCC(CO)N(c2ncnc3[nH]ccc23)C1 (stereo not drawn) [AVI-3726] | 0 | 0.17 | 3 | 34 | 34 |  |  |  | TRUE | 0.17 | TRUE | TRUE | Adenosine | 
8 | OCC1CC2(CCCCC2)CN1c1ncnc2[nH]ccc12 (stereo not drawn) [AVI-3727] | 0 | 0.29 | 1 | 58 | 58 |  |  |  | TRUE | 0.29 | TRUE | TRUE | Adenosine | PanDDA run, overall: Modeling comment ([1]; crystal soak 10 mM): Distal site, weak density, not modeled
9 | OCC1CC2(CCC2)CN1c1ncnc2[nH]ccc12 (stereo not drawn) [AVI-3728] | 0 | 0.24 | 2 | 48 | 48 |  |  |  | TRUE | 0.24 | TRUE | TRUE | Adenosine | PanDDA run, overall: Modeling comment ([1]; crystal soak 10 mM): Distal site, weak density, not modeled
